For data set [1], the system named is human aorta endothelial cells (HAECs). Briefly: Intracellular cAMP assessment in HAECs. It counts as cell-based. The following applies: 5 min stimulation, beginning at 0.1 uM ABA. How it is done:
These cells were serum-starved using HBSS buffer for 30 min and then stimulated with various concentrations of abscisic acid (ABA) or Forskolin (forsk, 1 uM) for 5 minutes. After removing supernatant, cells were lysed with 0.1 M HCL to measure nonacetylated cAMP. Results (pmol/ml) from four independent experiments are depicted. Data are represented as mean±standard error.
(§1) Confluent human aorta endothelial cells (HAECs) were serum-starved using HBSS buffer for 30 min, then stimulated with various concentration of ABA and Forskolin (1 uM) for 5 min, after removing supernatant, cells were lysed with 0.1 M HCL to measure non-acetylated cAMP using a commercially available kit (Cayman chemical) following the manufacturer's instructions. Results (pmol/mL) were obtained from four independent experiments. For nitric oxide (NO), confluent HAECs were serum-starved for 30 min by using HBSS buffer, then treated with ABA for 15 min. Supernatant was used to measure NO using an fluorescent kit.

Data set [2] is described as follows: Intraperitoneal glucose tolerance test and fasting insulin in db/db mice. It counts as in vivo. The procedure: Obese db/db mice were fed high-fat diets containing […] mg/kg diet rosiglitazone maleate (control, Ros^lo, and Ros^hi, respectively) with and without racemic ABA (100 mg/kg diet). On day 42 mice underwent an intraperitoneal glucose tolerance test (IPGTT) (A). Areas under the curve (B) were calculated for each treatment. On day 55 fasting insulin levels were measured for mice on each diet (C). Data are represented as mean±standard error.
Mice (n=40) were fed one of six experimental diets: a control high-fat diet (control), a high-fat diet containing low dose rosiglitazone maleate (Ros^lo, 10 mg/kg diet), or a high-fat diet containing a high dose of rosiglitazone maleate (Ros^hi, 70 mg/kg diet), each with or without all racemic ABA (100 mg/kg, Sigma Aldrich, St. Louis, Mo.) for 60 days. Mice were weighed and fasting (12 h) blood glucose levels were taken weekly. Blood glucose levels were assessed with an ACCU-CHEK® Glucometer (Roche, Indianapolis, Ind.). An intraperitoneal glucose tolerance test (IPGTT, 1 g glucose/kg body weight) was conducted on fasted mice (12 h) for 0, 30, 90, and 180 minute time points and insulin levels were measured on day 54. On day 60 mice were sacrificed by CO2 narcosis with secondary thoracotomy. Abdominal WAT, inguinal subcutaneous WAT, and liver were then excised and weighed. Abdominal and subcutaneous WAT were then digested and fractionated.

The target in the next data set is T1, PPAR γ (Mus musculus, UniProt P37238).
T1 construct: expressed in transfected cells; host or cells: 3T3-L1 pre-adipocytes
T1 sequence (P37238 31-505 limits assumed): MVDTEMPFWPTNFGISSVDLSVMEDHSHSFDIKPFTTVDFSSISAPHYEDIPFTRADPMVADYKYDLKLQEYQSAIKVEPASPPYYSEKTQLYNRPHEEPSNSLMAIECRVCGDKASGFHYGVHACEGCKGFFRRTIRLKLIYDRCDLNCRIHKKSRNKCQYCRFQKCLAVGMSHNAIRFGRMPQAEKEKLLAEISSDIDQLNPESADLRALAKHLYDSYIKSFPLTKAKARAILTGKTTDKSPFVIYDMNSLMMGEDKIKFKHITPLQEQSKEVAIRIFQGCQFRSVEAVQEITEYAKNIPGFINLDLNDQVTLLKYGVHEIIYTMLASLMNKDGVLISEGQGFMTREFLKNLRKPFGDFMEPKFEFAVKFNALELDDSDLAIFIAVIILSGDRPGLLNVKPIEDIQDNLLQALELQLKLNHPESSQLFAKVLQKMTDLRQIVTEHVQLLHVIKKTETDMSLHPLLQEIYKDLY
Briefly: PPAR γ reporter activity assay in 3T3-L1 preadipocytes. It counts as cell-based. Particulars: 6 hrs, Ros 1 μM, ABA 10 μM. How it is done:
For 3T3-L1 preadipocytes cells were treated for 6-h with vehicle (DMSO) or Ros (1 μM) with ABA (10 μM), the cAMP-inhibitor 2′5′ dideoxyadenosine (dideoxy, 10 μM), or 14-22 myristolated PKA inhibitor fragment (PKAi, 30 μM). […] Luciferase activity was normalized to pRL activity in the cell extracts and relative luciferase activity was calculated a ratio of the activity in the treatment wells to control wells. Data are represented as mean±standard error.
A pCMX.PPAR γ expression plasmid and a pTKPPRE3x luciferase reporter plasmid driven by the PPRE-containing Acyl-CoA oxidase promoter (kindly provided by Dr. R M. Evans, The Salk Institute, San Diego, Calif.) were purified using Qiagen's Maxi kit (Valencia, Calif.). […] Cells were co-transfected in the […] with 1.5 μg plasmid DNA and 25 ng of pRL reporter control using F-2 transfection reagents (Targeting Systems, Santee, Calif.) according to the manufacturer's protocol. […] Cells were then treated in replicates of 8 with vehicle (DMSO), rosiglitazone (1 or 10 μM; Cayman Chemicals, Arm Arbor, Mich.), or ABA (10 μM; Sigma) with and without 2′5′ dideoxyadenosine (10 μM; Sigma) and 14-22 myristolated PKA inhibitor fragment (PKAi, 30 μM; Sigma). […] Luciferase activity, normalized to pRL activity in the cell extracts was determined by using the Dual Luciferase II reporter assay system (Promega, Madison, Wis.) using a Modulus 96-well luminometer (Turner Biosystems, Sunnyvale, Calif.). All values were normalized to control wells to calculate relative luciferase activity.

For data set [3] the following is noted: mice fed ABA at doses ranging from 100 to 800 mg/kg of diet [44]; cited from earlier work.
The test system of data set [4] is human aorta endothelial cells (HAECs). As to the kind of experiment: Nitric oxide assessment in HAECs. Format: cell-based. The following applies: 15 min treatment, beginning at 0.1 uM ABA. How it is done:
as §1

`CC1=CC(=O)CC(C)(C)C1(O)/C=C/C(C)=C\C(=O)O` (racemic) [ABA, abscisic acid]: the “intracellular cAMP concentration” value in data set [1] is listed as “significantly increased”. The “glucose tolerance (IPGTT)” value in data set [2] (day 42, relative to the control diet) was “significantly improved”. Besides, the fasting insulin levels entry in data set [2] (dietary ABA 100 mg/kg diet, P=0.04) is recorded as “significantly reduced”. Further, the “PPAR γ activity” value on PPAR γ is reported as “increased”. Also, the side-effects result in data set [3] was “no detectable side-effects”. Besides, the nitric oxide production entry in data set [4] was “significantly increased”.

The values are drawn from patent US9119881B2, “Method of synergistically enhancing the therapeutic efficacy and safety of medication through a combination therapy” (priority 2010, dated 2015).
